In patent publication US20130274174A1, “THERAPEUTIC COMBINATION OF DAPTOMYCIN AND PROTEIN SYNTHESIS INHIBITOR ANTIBIOTIC, AND METHODS OF USE” (priority 2011, published 2013):
Values after ≈ are worked out from the molar mass of the structure shown. Where two headings read alike, the source gives them in different places.

Key:
S. aureus ATCC 33591 = test: microbe, parasite or virus in culture; format: cell-based, Staphylococcus aureus; details: for MIC: Staphylococcus aureus
Protocol: (§1) S. aureus strains MW2 (NARSA collection clinical MRSA isolate, NRS123) and ATCC 33591 (MRSA strain from the American Type Culture Collection) were cultured on Mueller-Hinton II cation adjusted (MHA) medium in 90×90 mm square petri dishes. MHA containing ¼ of the MIC value of TR-700, TR-705, LZD, TIA, CLI, TET, or VAN, TMP/SMX throughout the plate and a continuous linear gradient of DAP across the plate was used to passage MW2. ATCC 33591 was passaged with ¼ of the MIC of a subset of these drugs (TR-700, TMP/SMX, and VAN). A DAP-only control passage group was included for both strains. DAP gradients were created by pouring two layers of media as previously described (Bryson, V., et al. 1952. Microbial selection. Science 116:45-51; Locke, J. B., et al., 2009. Antimicrob. Agents Chemother. 53:5265-5274). Following each passage the leading edge of growth (i.e., most resistant cells) was resuspended in phosphate buffered saline (PBS) to an absorbance of 0.30 OD600 and a 100 μl aliquot containing ˜3.0×10^7 CFU (colony-forming units) was spread on to the proceeding passage plate. The starting maximal DAP concentration was 2 μg/ml and was increased in two-fold increments when the leading edge of growth surpassed the half way point on the plate. A glycerol stock was made from the total cell population for each culture condition for each passage. Thirty serial passages were completed for each treatment group.

S. aureus MW2 (NRS123) = test: microbe, parasite or virus in culture; format: cell-based, Staphylococcus aureus; details: for MIC: Staphylococcus aureus
Protocol: as §1

In the case of `Cn1nnc(-c2ccc(-c3ccc(N4C[C@H](CO)OC4=O)cc3F)cn2)n1` [TR-700, Tedizolid], the “DAP MIC lower than DAP-only control” value (S. aureus ATCC 33591; ATCC 33591, co-selecting agent at ¼ MIC) is reported as 4 fold, the MIC (S. aureus ATCC 33591; ATCC33591, passage 0, ATCC 33591 WT) is reported as 0.5 µg/mL (≈ 1.35 µM) and the MIC (S. aureus ATCC 33591; ATCC33591, passage 5, selection group DAP) is reported as 0.125 µg/mL (≈ 0.338 µM). The MIC (S. aureus ATCC 33591; ATCC33591, passage 5, selection group DAP + TMP/SMX) was 0.5 µg/mL, the MIC (S. aureus ATCC 33591; ATCC33591, passage 5, selection group DAP + TR-700) was 0.5 µg/mL and the MIC (S. aureus ATCC 33591; ATCC33591, passage 5, selection group DAP + VAN) was 0.5 µg/mL. The MIC (S. aureus ATCC 33591; ATCC33591, passage 10, selection group DAP) was 0.125 µg/mL (≈ 0.338 µM), the MIC (S. aureus ATCC 33591; ATCC33591, passage 10, selection group DAP + TMP/SMX) was 0.25 µg/mL and the MIC (S. aureus ATCC 33591; ATCC33591, passage 10, selection group DAP + TR-700) was 0.5 µg/mL. It also gave an MIC (S. aureus ATCC 33591; ATCC33591, passage 10, selection group DAP + VAN) of 0.5 µg/mL, an MIC (S. aureus ATCC 33591; ATCC33591, passage 15, selection group DAP) of 0.125 µg/mL (≈ 0.338 µM) and an MIC (S. aureus ATCC 33591; ATCC33591, passage 15, selection group DAP + TMP/SMX) of 0.25 µg/mL. It also gave an MIC (S. aureus ATCC 33591; ATCC33591, passage 15, selection group DAP + TR-700) of 0.5 µg/mL, an MIC (S. aureus ATCC 33591; ATCC33591, passage 15, selection group DAP + VAN) of 0.25 µg/mL and an MIC (S. aureus ATCC 33591; ATCC33591, passage 20, selection group DAP) of 0.125 µg/mL (≈ 0.338 µM). It also gave an MIC (S. aureus ATCC 33591; ATCC33591, passage 20, selection group DAP + TMP/SMX) of 0.25 µg/mL, an MIC (S. aureus ATCC 33591; ATCC33591, passage 20, selection group DAP + TR-700) of 0.5 µg/mL and an MIC (S. aureus ATCC 33591; ATCC33591, passage 20, selection group DAP + VAN) of 0.5 µg/mL. For the same compound, the MIC (S. aureus ATCC 33591; ATCC33591, passage 25, selection group DAP) was 0.125 µg/mL (≈ 0.338 µM), the MIC (S. aureus ATCC 33591; ATCC33591, passage 25, selection group DAP + TMP/SMX) was 0.25 µg/mL and the MIC (S. aureus ATCC 33591; ATCC33591, passage 25, selection group DAP + TR-700) was 0.25 µg/mL. For the same compound, the MIC (S. aureus ATCC 33591; ATCC33591, passage 25, selection group DAP + VAN) was 0.25 µg/mL, the MIC (S. aureus ATCC 33591; ATCC33591, passage 30, selection group DAP) was 0.125 µg/mL (≈ 0.338 µM) and the MIC (S. aureus ATCC 33591; ATCC33591, passage 30, selection group DAP + TMP/SMX) was 0.25 µg/mL. The MIC (S. aureus ATCC 33591; ATCC33591, passage 30, selection group DAP + TR-700) was 0.5 µg/mL, the MIC (S. aureus ATCC 33591; ATCC33591, passage 30, selection group DAP + VAN) was 0.5 µg/mL and the MIC (S. aureus ATCC 33591; ATCC33591, read-out: DAP MIC of the co-selection passage group, ATCC 33591, through P15, co-selecting agent at ¼ MIC) was at most 1 µg/mL. For the same compound, the “DAP MIC lower than DAP-only control” value (S. aureus MW2 (NRS123); MW2, after 30 passages, co-selecting agent at ¼ MIC, total population) was 16 fold, the MIC (S. aureus MW2 (NRS123); NRS123, passage 0, NRS123 WT) was 0.5 µg/mL (≈ 1.35 µM) and the MIC (S. aureus MW2 (NRS123); NRS123, passage 5, selection group DAP) was 0.5 µg/mL (≈ 1.35 µM). For the same compound, the MIC (S. aureus MW2 (NRS123); NRS123, passage 5, selection group DAP + CLI) was 0.5 µg/mL, the MIC (S. aureus MW2 (NRS123); NRS123, passage 5, selection group DAP + LZD) was 0.5 µg/mL and the MIC (S. aureus MW2 (NRS123); NRS123, passage 5, selection group DAP + TET) was 0.5 µg/mL. It also gave an MIC (S. aureus MW2 (NRS123); NRS123, passage 5, selection group DAP + TIA) of 0.5 µg/mL, an MIC (S. aureus MW2 (NRS123); NRS123, passage 5, selection group DAP + TMP/SMX) of 0.25 µg/mL and an MIC (S. aureus MW2 (NRS123); NRS123, passage 5, selection group DAP + TR-700) of 0.5 µg/mL. It also gave an MIC (S. aureus MW2 (NRS123); NRS123, passage 5, selection group DAP + TR-705) of 0.5 µg/mL, an MIC (S. aureus MW2 (NRS123); NRS123, passage 5, selection group DAP + VAN) of 0.25 µg/mL and an MIC (S. aureus MW2 (NRS123); NRS123, passage 10, selection group DAP) of 0.5 µg/mL (≈ 1.35 µM). For the same compound, the MIC (S. aureus MW2 (NRS123); NRS123, passage 10, selection group DAP + CLI) was 0.5 µg/mL, the MIC (S. aureus MW2 (NRS123); NRS123, passage 10, selection group DAP + LZD) was 0.5 µg/mL and the MIC (S. aureus MW2 (NRS123); NRS123, passage 10, selection group DAP + TET) was 0.5 µg/mL. The MIC (S. aureus MW2 (NRS123); NRS123, passage 10, selection group DAP + TIA) was 0.5 µg/mL, the MIC (S. aureus MW2 (NRS123); NRS123, passage 10, selection group DAP + TMP/SMX) was 0.5 µg/mL and the MIC (S. aureus MW2 (NRS123); NRS123, passage 10, selection group DAP + TR-700) was 0.5 µg/mL. The MIC (S. aureus MW2 (NRS123); NRS123, passage 10, selection group DAP + TR-705) was 0.5 µg/mL, the MIC (S. aureus MW2 (NRS123); NRS123, passage 10, selection group DAP + VAN) was 0.25 µg/mL and the MIC (S. aureus MW2 (NRS123); NRS123, passage 15, selection group DAP) was 0.25 µg/mL (≈ 0.675 µM). For the same compound, the MIC (S. aureus MW2 (NRS123); NRS123, passage 15, selection group DAP + CLI) was 0.25 µg/mL, the MIC (S. aureus MW2 (NRS123); NRS123, passage 15, selection group DAP + LZD) was 0.5 µg/mL and the MIC (S. aureus MW2 (NRS123); NRS123, passage 15, selection group DAP + TET) was 0.25 µg/mL. For the same compound, the MIC (S. aureus MW2 (NRS123); NRS123, passage 15, selection group DAP + TIA) was 0.5 µg/mL, the MIC (S. aureus MW2 (NRS123); NRS123, passage 15, selection group DAP + TMP/SMX) was 0.5 µg/mL and the MIC (S. aureus MW2 (NRS123); NRS123, passage 15, selection group DAP + TR-700) was 0.5 µg/mL. For the same compound, the MIC (S. aureus MW2 (NRS123); NRS123, passage 15, selection group DAP + TR-705) was 0.5 µg/mL, the MIC (S. aureus MW2 (NRS123); NRS123, passage 15, selection group DAP + VAN) was 0.5 µg/mL and the MIC (S. aureus MW2 (NRS123); NRS123, passage 20, selection group DAP) was 0.5 µg/mL (≈ 1.35 µM). For the same compound, the MIC (S. aureus MW2 (NRS123); NRS123, passage 20, selection group DAP + CLI) was 0.25 µg/mL, the MIC (S. aureus MW2 (NRS123); NRS123, passage 20, selection group DAP + LZD) was 0.5 µg/mL and the MIC (S. aureus MW2 (NRS123); NRS123, passage 20, selection group DAP + TET) was 0.25 µg/mL. It also gave an MIC (S. aureus MW2 (NRS123); NRS123, passage 20, selection group DAP + TIA) of 0.5 µg/mL, an MIC (S. aureus MW2 (NRS123); NRS123, passage 20, selection group DAP + TMP/SMX) of 0.5 µg/mL and an MIC (S. aureus MW2 (NRS123); NRS123, passage 20, selection group DAP + TR-700) of 0.5 µg/mL. The MIC (S. aureus MW2 (NRS123); NRS123, passage 20, selection group DAP + TR-705) was 0.5 µg/mL, the MIC (S. aureus MW2 (NRS123); NRS123, passage 20, selection group DAP + VAN) was 0.5 µg/mL and the MIC (S. aureus MW2 (NRS123); NRS123, passage 25, selection group DAP) was 0.25 µg/mL (≈ 0.675 µM). For the same compound, the MIC (S. aureus MW2 (NRS123); NRS123, passage 25, selection group DAP + CLI) was 0.25 µg/mL, the MIC (S. aureus MW2 (NRS123); NRS123, passage 25, selection group DAP + LZD) was 0.25 µg/mL and the MIC (S. aureus MW2 (NRS123); NRS123, passage 25, selection group DAP + TET) was 0.25 µg/mL. For the same compound, the MIC (S. aureus MW2 (NRS123); NRS123, passage 25, selection group DAP + TIA) was 0.5 µg/mL, the MIC (S. aureus MW2 (NRS123); NRS123, passage 25, selection group DAP + TMP/SMX) was 0.25 µg/mL and the MIC (S. aureus MW2 (NRS123); NRS123, passage 25, selection group DAP + TR-700) was 0.5 µg/mL. It also gave an MIC (S. aureus MW2 (NRS123); NRS123, passage 25, selection group DAP + TR-705) of 0.5 µg/mL, an MIC (S. aureus MW2 (NRS123); NRS123, passage 25, selection group DAP + VAN) of 0.25 µg/mL and an MIC (S. aureus MW2 (NRS123); NRS123, passage 30, selection group DAP) of 0.25 µg/mL (≈ 0.675 µM). It also gave an MIC (S. aureus MW2 (NRS123); NRS123, passage 30, selection group DAP + CLI) of 0.25 µg/mL, an MIC (S. aureus MW2 (NRS123); NRS123, passage 30, selection group DAP + LZD) of 0.5 µg/mL and an MIC (S. aureus MW2 (NRS123); NRS123, passage 30, selection group DAP + TET) of 0.25 µg/mL. It also gave an MIC (S. aureus MW2 (NRS123); NRS123, passage 30, selection group DAP + TIA) of 0.5 µg/mL, an MIC (S. aureus MW2 (NRS123); NRS123, passage 30, selection group DAP + TMP/SMX) of 0.5 µg/mL and an MIC (S. aureus MW2 (NRS123); NRS123, passage 30, selection group DAP + TR-700) of 0.5 µg/mL. The MIC (S. aureus MW2 (NRS123); NRS123, passage 30, selection group DAP + TR-705) was 0.5 µg/mL, the MIC (S. aureus MW2 (NRS123); NRS123, passage 30, selection group DAP + VAN) was 0.25 µg/mL and the MIC (S. aureus MW2 (NRS123); NRS123, read-out: DAP MIC by the end of the experiment (selection of DAP^ns strains), MW2, passaged with DAP alone or with co-selecting agent at ¼ MIC, CLSI breakpoint) was over 1 µg/mL. For the same compound, the “susceptibility to the co-selecting agent in its co-selection group” value (S. aureus MW2 (NRS123); over the course of 30 passages) was “did not demonstrate reduced susceptibility to TR-700”.
